Laboratory results: patent US12552793B2, “Purine derivative and medical use thereof” (KANGBAIDA (SICHUAN) BIOTECHNOLOGY CO., LTD., priority 2019, dated 2026)

target: T1, DNA-PK kinase (Homo sapiens (Human), UniProt P78527); assay: not given
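Note: enzyme inhibition of DNA-PK with kinase activity read out by chemiluminescence on a microplate reader after adding a kinase detection reagent.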

Row | Structure (SMILES) | IC50 [pM]
1 | Cc1cc(C#N)ccc1Nc1ncc2c(n1)n(C1C3CC4CC1CC(O)(C4)C3)c(=O)n2C (single isomer, unassigned) [Compound 13-2, 4-((9-(5-Hydroxyadamantan-2-yl)-7-methyl-8-oxo-8,9-dihydro-7H-purin-2-yl)amino)-3-methylbenzonitrile] | 51900
2 | Cn1c(=O)n(C23CC4CC(CC(O)(C4)C2)C3)c2nc(Nc3cc4c(cc3Cl)OCC4)ncc21 [Compound 33, 2-((6-Chloro-2,3-dihydrobenzofuran-5-yl)amino)-9-(3-hydroxyadamantan-1-yl)-7-methyl-7,9-dihydro-8H-purin-8-one] | 6400
3 | Cc1cc2c(cc1Nc1ncc3c(n1)n(C14CC5CC(CC(O)(C5)C1)C4)c(=O)n3C)CCO2 [Compound 32, 9-(3-Hydroxyadamantan-1-yl)-7-methyl-2-((6-methyl-2,3-dihydrobenzofuran-5-yl)amino)-7,9-dihydro-8H-purin-8-one] | 2300
4 | Cc1cc(C(N)=O)c(F)cc1Nc1ncc2c(n1)n(C13CC4CC(C1)C(C#N)C(C4)C3)c(=O)n2C (single isomer, unassigned) [Compound 24-2, 4-((9-(4-Cyanoadamantan-1-yl)-7-methyl-8-oxo-8,9-dihydro-7H-purin-2-yl)amino)-2-fluoro-5-methylbenzamide] | 8390
5 | Cc1cc2ncnn2cc1Nc1ncc2c(n1)n(C13CC4CC(CC(N)(C4)C1)C3)c(=O)n2C [Compound 10, 7-Methyl-2-[(7-methyl-[1,2,4]triazolo[1,5-a]pyridin-6-yl)amino]-9-[3-aminoadamantan-1-yl]-8,9-dihydro-7H-purin-8-one] | 2260
6 | Cc1cc(C(N)=O)c(F)cc1Nc1ncc2c(n1)n(C1C3CC4CC1CC(O)(C4)C3)c(=O)n2C (single isomer, unassigned) [Compound 27-1, 2-Fluoro-4-((9-(5-hydroxyadamantan-2-yl)-7-methyl-8-oxo-8,9-dihydro-7H-purin-2-yl)amino)-5-methylbenzamide] | 10500
7 | Cc1cc(C(N)=O)c(F)cc1Nc1ncc2c(n1)n(C13CC4CC(CC(C#N)(C4)C1)C3)c(=O)n2C [Compound 34, 4-((9-(3-Cyanoadamantan-1-yl)-7-methyl-8-oxo-8,9-dihydro-7H-purin-2-yl)amino)-2-fluoro-5-methylbenzamide] | 7500
8 | Cc1cc2ncnn2cc1Nc1ncc2c(n1)n(C13CC4CC(CC(C(=O)N5CCOCC5)(C4)C1)C3)c(=O)n2C [Compound 9, 7-Methyl-2-[(7-methyl-[1,2,4]triazolo[1,5-a]pyridin-6-yl)amino]-9-[3-(morpholine-4-carbonyl)adamantan-1-yl]-8,9-dihydro-7H-purin-8-one] | 1100
9 | Cc1cc2ncnn2cc1Nc1ncc2c(n1)n(C13CC4CC(CC(C(N)=O)(C4)C1)C3)c(=O)n2C [Compound 5, 3-(7-Methyl-2-[(7-methyl-[1,2,4]triazolo[1,5-a]pyridin-6-yl)amino]-8-oxo-8,9-dihydro-7H-purin-9-yl)adamantane-1-carboxamide] | 3870
10 | Cc1cc2ncnn2cc1Nc1ncc2c(n1)n(C13CC4CC(CC(C(=O)OC(C)(C)C)(C4)C1)C3)c(=O)n2C [Compound 3, tert-Butyl-3-(7-methyl-2-[(7-methyl-[1,2,4]triazolo[1,5-a]pyridin-6-yl)amino]-8-oxo-8,9-dihydro-7H-purin-9-yl)adamantane-1-carboxylate] | 15000
11 | Cc1cc2ncnn2cc1Nc1ncc2c(n1)n(C1C3CC4CC1CC(C#N)(C4)C3)c(=O)n2C (single isomer, unassigned) [Compound 28-1, 4-(7-Methyl-2-((7-methyl-[1,2,4]triazolo[1,5-a]pyridin-6-yl)amino)-8-oxo-7,8-dihydro-9H-purin-9-yl)adamantane-1-carbonitrile] | 750

The next lines start with the values.

Row | IC50 [pM] | Structure (SMILES)
12 | 100 | COC1(OC)C2CC3CC1CC(n1c(=O)n(C)c4cnc(Nc5cc6c(cc5C)OCC6)nc41)(C3)C2 [Compound 31, 9-(4,4-Dimethoxyadamantan-1-yl)-7-methyl-2-((6-methyl-2,3-dihydrobenzofuran-5-yl)amino)-7,9-dihydro-8H-purin-8-one]
13 | 450 | Cc1cc2ncnn2cc1Nc1ncc2c(n1)n(C13CC4CC(CC(C(=O)O)(C4)C1)C3)c(=O)n2C [Compound 4, 3-(7-Methyl-2-((7-methyl-[1,2,4]triazolo[1,5-a]pyridin-6-yl)amino)-8-oxo-7,8-dihydro-9H-purin-9-yl)adamantane-1-carboxylic acid]
14 | 30 | Cc1cc2ncnn2cc1Nc1ncc2c(n1)n(C13CC4CC(C1)C(=O)C(C4)C3)c(=O)n2C [Compound 19, 7-Methyl-2-((7-methyl-[1,2,4]triazolo[1,5-a]pyridin-6-yl)amino)-9-(4-oxoadamantan-1-yl)-7,9-dihydro-8H-purin-8-one]
15 | 660 | Cc1cc(C(N)=O)c(F)cc1Nc1ncc2c(n1)n(C13CC4CC(C1)C(C#N)C(C4)C3)c(=O)n2C (single isomer, unassigned) [Compound 24-1, 4-((9-(4-Cyanoadamantan-1-yl)-7-methyl-8-oxo-8,9-dihydro-7H-purin-2-yl)amino)-2-fluoro-5-methylbenzamide]
16 | 80 | Cc1cc2c(cc1Nc1ncc3c(n1)n(C14CC5CC(C1)C(=O)C(C5)C4)c(=O)n3C)CCO2 [Compound 30, 7-Methyl-2-((6-methyl-2,3-dihydrobenzofuran-5-yl)amino)-9-(4-oxoadamantan-1-yl)-7,9-dihydro-8H-purin-8-one]
17 | 100 | COC12CC3CC(C1)CC(n1c(=O)n(C)c4cnc(Nc5cn6ncnc6cc5C)nc41)(C3)C2 [Compound 11, 9-(3-Methoxyadamantan-1-yl)-7-methyl-2-((7-methyl-[1,2,4]triazolo[1,5-a]pyridin-6-yl)amino)-7,9-dihydro-8H-purin-8-one]
18 | 10 | Cc1cc(C(N)=O)c(F)cc1Nc1ncc2c(n1)n(C13CC4CC(C1)C(=O)C(C4)C3)c(=O)n2C [Compound 25, 2-Fluoro-5-methyl-4-((7-methyl-8-oxo-9-(4-oxoadamantan-1-yl)-8,9-dihydro-7H-purin-2-yl)amino)benzamide]
19 | 10 | CCOC(=O)C12CC3CC(C1)CC(n1c(=O)n(C)c4cnc(Nc5cn6ncnc6cc5C)nc41)(C3)C2 [Compound 7, Ethyl-3-(7-methyl-2-[(7-methyl-[1,2,4]triazolo[1,5-a]pyridin-6-yl)amino]-8-oxo-8,9-dihydro-7H-purin-9-yl)adamantane-1-carboxylate]
20 | 680 | Cc1cc(C#N)ccc1Nc1ncc2c(n1)n(C1C3CC4CC1CC(O)(C4)C3)c(=O)n2C (single isomer, unassigned) [Compound 13-1, 4-((9-(5-Hydroxyadamantan-2-yl)-7-methyl-8-oxo-8,9-dihydro-7H-purin-2-yl)amino)-3-methylbenzonitrile]
21 | 10 | Cc1cc2ncnn2cc1Nc1ncc2c(n1)n(C13CC4CC(CC(CO)(C4)C1)C3)c(=O)n2C [Compound 8, 7-Methyl-2-[(7-methyl-[1,2,4]triazolo[1,5-a]pyridin-6-yl)amino]-9-[3-(hydroxymethyl)adamantan-1-yl]-8,9-dihydro-7H-purin-8-one]
22 | 100 | Cc1cc2ncnn2cc1Nc1ncc2c(n1)n(C1C3CC4CC1CC(C#N)(C4)C3)c(=O)n2C (single isomer, unassigned) [Compound 28-2, 4-(7-Methyl-2-((7-methyl-[1,2,4]triazolo[1,5-a]pyridin-6-yl)amino)-8-oxo-7,8-dihydro-9H-purin-9-yl)adamantane-1-carbonitrile]
23 | 10 | Cc1cc2ncccc2cc1Nc1ncc2c(n1)n(C13CC4CC(CC(O)(C4)C1)C3)c(=O)n2C [Compound 2, 9-(3-Hydroxyadamantan-1-yl)-7-methyl-2-((7-methylquinolin-6-yl)amino)-7,9-dihydro-8H-purin-8-one]
24 | 100 | Cc1cc2ncnn2cc1Nc1ncc2c(n1)n(C13CC4CC(C1)C(C#N)C(C4)C3)c(=O)n2C (single isomer, unassigned) [Compound 21-2, 5-(7-Methyl-2-((7-methyl-[1,2,4]triazolo[1,5-a]pyridin-6-yl)amino)-8-oxo-7,8-dihydro-9H-purin-9-yl)adamantane-2-carbonitrile]
25 | 10 | Cc1cc(C(N)=O)c(F)cc1Nc1ncc2c(n1)n(C13CC4CC(CC(O)(C4)C1)C3)c(=O)n2C [Compound 22, 2-Fluoro-4-((9-(3-hydroxyadamantan-1-yl)-7-methyl-8-oxo-8,9-dihydro-7H-purin-2-yl)amino)-5-methylbenzamide]
26 | 480 | Cc1cc(C(N)=O)c(F)cc1Nc1ncc2c(n1)n(C1C3CC4CC1CC(O)(C4)C3)c(=O)n2C (single isomer, unassigned) [2-Fluoro-4-((9-(5-hydroxyadamantan-2-yl)-7-methyl-8-oxo-8,9-dihydro-7H-purin-2-yl)amino)-5-methylbenzamide]
27 | 320 | Cc1cc2ncnn2cc1Nc1ncc2[nH]c(=O)n(C34CC5CC(CC(O)(C5)C3)C4)c2n1 [Compound 36, 9-(3-Hydroxyadamantan-1-yl)-2-((7-methyl-[1,2,4]triazolo[1,5-a]pyridin-6-yl)amino)-7,9-dihydro-8H-purin-8-one]
28 | 10 | Cc1cc2ncnn2cc1Nc1ncc2c(n1)n(C13CC4CC(C1)C(C#N)C(C4)C3)c(=O)n2C (single isomer, unassigned) [Compound 21-1, 5-(7-Methyl-2-((7-methyl-[1,2,4]triazolo[1,5-a]pyridin-6-yl)amino)-8-oxo-7,8-dihydro-9H-purin-9-yl)adamantane-2-carbonitrile]

target: T1, DNA-PK kinase; assay: biochemical
Description: Inhibition of DNA-PK Kinase
The inhibitory activity of the compounds against DNA-PK kinase was determined using a DNA-PK kinase assay kit (purchased from Promega, Cat. No. V4107, Batch No. 0000366495). The results were quantified using chemiluminescence, specifically as follows: • i. ADP-fluorescence standard curves at different concentrations were constructed according to the instructions of the kit; • ii. reaction systems (5 L) were prepared in a 384-well white plate; 1 μL of a compound (concentration gradients 1 μM, 200 nM, 40 nM, 8 nM, 1.6 nM, 0.32 nM, 0.064 nM and 0.013 nM were set for each compound), 20 units of DNA-PK kinase, 0.2 μg/μL substrate, 10 μg/μL DNA, 50 μM ATP and 1% DMSO were successively added to each well; • iii. the mixtures were well mixed, centrifuged (1000 rpm, 30 s), and incubated at 37° C. for 60 min; • iv. the reactions were terminated by adding 5 μL of ADP-Glo™ Reagent; the mixtures were well mixed, centrifuged (1000 rpm, 30 s), and incubated at room temperature for 40 min; • v. 10 μL of Kinase Detection Reagent was added; the mixtures were well mixed by shaking, centrifuged (1000 rpm, 30 s), and incubated at room temperature for 30 min; • vi. fluorescence values were measured using a microplate reader (Thermo fisher, Varioskan LUX). IC50 was calculated using GraphPad Prism 8.

Row | Structure (SMILES) | IC50 [pM]
29 | CNC(=O)c1cc(C)c(Nc2ncc3c(n2)n(C24CC5CC(CC(O)(C5)C2)C4)c(=O)n3C)cn1 [Compound 15, 5-((9-(3-Hydroxyadamantan-1-yl)-7-methyl-8-oxo-8,9-dihydro-7H-purin-2-yl)amino)-N,4-dimethylpicolinamide] | 1100
30 | Cc1cc2ncnn2cc1Nc1ncc2c(n1)n(C13CC4CC(C1)C(O)C(C4)C3)c(=O)n2C (stereo not drawn) [Compound 18-2, 9-(4-Hydroxyadamantan-1-yl)-7-methyl-2-((7-methyl-[1,2,4]triazolo[1,5-a]pyridin-6-yl)amino)-7,9-dihydro-8H-purin-8-one] | 130
